Measured values from paper PMC4402028 (Journal of Clinical Pharmacology, 2015).
Values joined by “and” are separate entries in the source; they are usually repeats but may differ in a detail not shown here. Equal entries are not always repeated. Where two headings read alike, the source gives them in different places.

Tests used:
[1] = Dog; IV 2 mg/kg; ref Furiex Studies DD7393, FK10138, FK10141, and FK10142; cited from earlier work
[2] = system: P-gp; details: in vitro; ref data on file at Furiex; cited from earlier work
[3] = type: in vivo, human; details: for AUC(0–inf), Ratio (%) of Geometric LS Means: all profiles with estimable elimination rates; for CL renal: plasma and urine, CLr; for Vd/F: Vz/F
[4] = ref data on file at Furiex; cited from earlier work
[5] = system: OCT1; details: in vitro; ref data on file at Furiex; cited from earlier work
[6] = system: BCRP; details: in vitro; ref data on file at Furiex; cited from earlier work
[7] = system: OCT1; details: in vitro; ref data on file at Furiex; cited from earlier work; remark: listed apart in the source
[8] = in vitro or in vivo, except slow formation of a glucuronide found in human urine after 1,000 mg oral dose; ref data on file at Furiex; cited from earlier work
[9] = system: BCRP; details: in vitro; ref data on file at Furiex; cited from earlier work; remark: listed apart in the source
[10] = system: OCT2; details: in vitro; ref data on file at Furiex; cited from earlier work
[11] = Safety and tolerability; type: in vivo, human
[12] = Semiphysiological integrated PK/ADME model; design: species or system human; details: for clearance: oral
[13] = plasma protein binding; model input, source not stated; cited from earlier work
[14] = system: Caco2 cell-line; details: ref data on file at Furiex; cited from earlier work
[15] = system: OAT1; details: in vitro; ref data on file at Furiex; cited from earlier work
[16] = system: OCT2; details: in vitro; ref data on file at Furiex; cited from earlier work; remark: listed apart in the source
[17] = Allometric PK scaling of CLTOT to human
[18] = system: OATP1B3; details: in vitro; ref data on file at Furiex; cited from earlier work
[19] = system: MRP2; details: in vitro; ref data on file at Furiex; cited from earlier work
[20] = system: OAT3; details: in vitro; ref data on file at Furiex; cited from earlier work
[21] = system: BSEP; details: in vitro; ref data on file at Furiex; cited from earlier work
[22] = system: MRP2; details: in vitro; ref data on file at Furiex; cited from earlier work; remark: listed apart in the source
[23] = system: OATP1B3; details: in vitro; ref data on file at Furiex; cited from earlier work; remark: listed apart in the source
[24] = system: CYP-450s; details: in vitro; ref data on file at Furiex; cited from earlier work
[25] = humans; single 300 mg radiolabeled dose; ref data on file at Furiex; cited from earlier work
[26] = Rhesus; IV 3.2 mg/kg; ref Furiex Studies DD7393, FK10138, FK10141, and FK10142; cited from earlier work
[27] = Cynos; IV 10 mg/kg; ref Furiex Studies DD7393, FK10138, FK10141, and FK10142; cited from earlier work
[28] = system: OAT1; details: in vitro; ref data on file at Furiex; cited from earlier work; remark: listed apart in the source
[29] = Rat; IV 10 mg/kg; ref Furiex Studies DD7393, FK10138, FK10141, and FK10142; cited from earlier work
[30] = both, human, plasma, oral, eluxadoline 100 mg plus cyclosporine 600 mg, arithmetic mean (CV), n = 19
[31] = both, human, plasma, oral, eluxadoline 100 mg plus probenecid 500 mg, arithmetic mean (CV), n = 20
[32] = coadministered with probenecid vs eluxadoline alone
[33] = human, reference case without inhibitor, estimated
[34] = in the presence of cyclosporine

COc1ccc(CN(C(=O)[C@@H](N)Cc2c(C)cc(C(N)=O)cc2C)[C@@H](C)c2ncc(-c3ccccc3)[nH]2)cc1C(=O)O [eluxadoline]
CLtot [1]: 19.92 mL/min/kg
t½ [1]: 0.75 h
transport by P-gp [2]: not to be transported
Cmax, Ratio (%) of Geometric LS Means ([3]; B/A: with cyclosporine 600 mg vs eluxadoline alone): 6.18%
AUC(0–inf), Ratio (%) of Geometric LS Means ([3]; B/A: with cyclosporine vs alone): 4.25%
Cmax, Ratio (%) of Geometric LS Means ([3]; C/A: with probenecid 500 mg vs eluxadoline alone): 1.31%
AUC(0–inf), Ratio (%) of Geometric LS Means ([3]; C/A: with probenecid vs alone): 1.48%
CL renal ([3]; both, human, oral, eluxadoline 100 mg plus cyclosporine 600 mg, arithmetic mean (CV)): 96.7 mL/min
CL renal ([3]; both, human, oral, eluxadoline 100 mg plus probenecid 500 mg, arithmetic mean (CV)): 61.7 mL/min
Tmax ([3]; both, human, plasma, oral, 100 mg): 2.1 h
AUC(0-inf) ([3]; both, human, plasma, oral, 100 mg, Geometric LS Means, Treatment A, all profiles with estimable elimination rates (N 20)): 14.7 ng·h/mL
AUC(0-inf) ([3]; both, human, plasma, oral, 100 mg, Geometric LS Means, Treatment A, only subjects with estimable elimination rates for all 3 treatments (N 7)): 15.7 ng·h/mL
AUC(0-inf) ([3]; both, human, plasma, oral, Geometric LS Means, Treatment B (+ cyclosporine 600 mg), all profiles with estimable elimination rates (N 19)): 62.6 ng·h/mL
AUC(0-inf) ([3]; both, human, plasma, oral, Geometric LS Means, Treatment B (+ cyclosporine 600 mg), only subjects with estimable elimination rates for all 3 treatments (N 7)): 79.9 ng·h/mL
AUC(0-inf) ([3]; both, human, plasma, oral, Geometric LS Means, Treatment C (+ probenecid 500 mg), all profiles with estimable elimination rates (N 20)): 21.8 ng·h/mL
AUC(0-inf) ([3]; both, human, plasma, oral, Geometric LS Means, Treatment C (+ probenecid 500 mg), only subjects with estimable elimination rates for all 3 treatments (N 7)): 20.4 ng·h/mL
AUC(0-inf) [3, 30]: 75.3 ng·h/mL
AUC(0-inf) [3, 31]: 23 ng·h/mL
Cmax ([3]; both, human, plasma, oral, eluxadoline 100 mg plus cyclosporine 600 mg, arithmetic mean (CV), N = 30): 20.9 ng/mL
Cmax ([3]; both, human, plasma, oral, eluxadoline 100 mg plus probenecid 500 mg, arithmetic mean (CV), N = 29): 3.6 ng/mL
Vd/F [3, 30]: 20700 L
Vd/F [3, 31]: 37100 L
half-life ([3]; both, human, plasma, oral, t1/2, eluxadoline 100 mg plus cyclosporine 600 mg, arithmetic mean (CV), n = 19): 7.4 h
half-life ([3]; both, human, plasma, oral, t1/2, eluxadoline 100 mg plus probenecid 500 mg, arithmetic mean (CV), n = 20): 5.1 h
effect on renal clearance (CLren) of eluxadoline ([3]; by cyclosporine): little effect
reduction of renal clearance (CLren) ([3]; by probenecid): ~50%
increase in AUC(0–inf), geometric mean ratio ([3]; coadministered with cyclosporine vs alone, subjects with estimable elimination rates for all 3 treatments): 5.1 fold
increase in peak exposure (Cmax) ([3]; coadministered with cyclosporine vs eluxadoline alone): 6.2 fold
increase in peak exposure (Cmax) [3, 32]: 1.3 fold and 1.31 fold
increase in systemic/total exposure [AUC(0–inf)] [3, 32]: 1.30 fold and 1.3 fold
CLren, mean (CV%) ([3]; eluxadoline 100 mg alone): 116 (20%) mL/min and 116 mL/min
%Fe(0–72), cumulative urinary excretion over 72 hours as fraction of the dose ([3]; eluxadoline 100 mg alone, arithmetic mean (CV)): 0.12%
%Fe(0–72), cumulative urinary excretion over 72 hours as fraction of the dose ([3]; eluxadoline 100 mg alone, arithmetic mean (CV), listed as Eluxadoline): 0.12 (52) %
CL/F ([3]; eluxadoline 100 mg alone, arithmetic mean (CV), n = 20): 7550 (54) L/h
%Fe(0–72), cumulative urinary excretion over 72 hours as fraction of the dose ([3]; eluxadoline 100 mg plus cyclosporine 600 mg, arithmetic mean (CV)): 0.46%
CL/F ([3]; eluxadoline 100 mg plus cyclosporine 600 mg, arithmetic mean (CV), n = 19): 1943 (69) L/h
%Fe(0–72), cumulative urinary excretion over 72 hours as fraction of the dose ([3]; eluxadoline 100 mg plus probenecid 500 mg, arithmetic mean (CV)): 0.08%
%Fe(0–72), cumulative urinary excretion over 72 hours as fraction of the dose ([3]; eluxadoline 100 mg plus probenecid 500 mg, arithmetic mean (CV), listed as Eluxadoline): 0.08 (39) %
CL/F ([3]; eluxadoline 100 mg plus probenecid 500 mg, arithmetic mean (CV), n = 20): 5645 (53) L/h
Tmax ([3]; eluxadoline 100 mg plus probenecid 500 mg, median (minimum, maximum)): 2.5 (0.25, 6.0) hours
CLren, mean (CV%) ([3]; in the presence of cyclosporine 600 mg): 97 (19%) mL/min and 97 mL/min
CLren, mean (CV%) ([3]; in the presence of probenecid 500 mg): 62 (25%) mL/min and 62 mL/min
fraction of the eluxadoline dose excreted in urine unchanged (%Fe) ([3]; with or without cyclosporine and probenecid): less than 1%
GI solubility [4]: high
inhibition of OCT1-mediated transport of probe substrates [5]: did not inhibit
transport by BCRP [6]: not to be transported
transport by OCT1 [7]: not to be transported
hepatic drug metabolism [8]: absence of hepatic drug metabolism
inhibition of BCRP-mediated transport of probe substrates [9]: did not inhibit
transport by OCT2 [10]: not to be transported
nausea ([11]; after eluxadoline alone): not reported
subjects reporting gastrointestinal AEs ([11]; after eluxadoline alone (1 subject)): 3%
subjects reporting AEs ([11]; after eluxadoline alone (2 subjects)): 7%
subjects reporting nausea ([11]; after eluxadoline combined with cyclosporine (3 subjects)): 10.0%
subjects reporting gastrointestinal AEs ([11]; after eluxadoline combined with probenecid (2 subjects)): 7%
subjects reporting gastrointestinal AEs ([11]; after eluxadoline in combination with cyclosporine (4 subjects)): 13%
subjects reporting AEs ([11]; after eluxadoline in combination with cyclosporine (6 subjects)): 20%
subjects reporting nausea ([11]; after eluxadoline with probenecid (1 subject)): 3%
PK-ADME-model-predicted AUC(0–inf) ([12]; eluxadoline alone): 17.8 ng·h/mL
renal excretion as share of overall elimination ([12]; human): 12%
clearance ([12]; human, plasma, 200 mg, biliary clearance (CLbil), without inhibitor, estimated): 832 mL/min
clearance ([12]; human, plasma, 200 mg, net tubular secretion clearance CLTS, without inhibitor, estimated): 459 mL/min
bioavailability ([12]; human, plasma, po, 200 mg): 1.02%
FGI (extent of GI absorption/GI permeability) [12, 33]: 2.3%
hepatic extraction ratio (ERhep) [12, 33]: 55.8%
intrinsic biliary CLint ([12]; human, without inhibitor, estimated): 9,370 mL/min
CLbil [12, 34]: 296 mL/min
Foral [12, 34]: 1.82%
reduction of CLTS [12, 34]: 24%
reduction of biliary CLint [12, 34]: 71%
CLbil ([12]; in the presence of probenecid): 750 mL/min
Foral ([12]; in the presence of probenecid): 1.15%
reduction of CLTS ([12]; in the presence of probenecid): 52%
reduction of biliary CLint ([12]; in the presence of probenecid): 21%
PK-ADME-model-predicted AUC(0–inf) ([12]; with cyclosporine): 78.3 ng·h/mL
model-predicted CLren ([12]; with cyclosporine): 92 mL/min
PK-ADME-model-predicted AUC(0–inf) ([12]; with probenecid): 23.6 ng·h/mL
model-predicted CLren ([12]; with probenecid): 62 mL/min
fu (unbound fraction of drug in plasma) [13]: 19%
Caco2 cell-line permeability [14]: poor
transport by OAT1 [15]: not to be transported
inhibition of OCT2-mediated transport of probe substrates [16]: did not inhibit
clearance [17]: 12.6 mL/min/kg and 949 mL/min
transport by OATP1B3 [18]: not to be transported
inhibition of MRP2-mediated transport of probe substrates [19]: did not inhibit
inhibition of OAT3-mediated transport of probe substrates [20]: did not inhibit
inhibition of BSEP-mediated transport of probe substrates [21]: did not inhibit
MRP2-dependent vesicular accumulation [22]: substrate of MRP2
inhibition of OATP1B3-mediated transport of probe substrates [23]: did not inhibit
inhibition or induction of CYP-450s [24]: no inhibition or induction
circulating metabolites [25]: no circulating metabolites were detected
CLtot [26]: 28.5 mL/min/kg
t½ [26]: 0.65 h
CLtot [27]: 18.54 mL/min/kg
t½ [27]: 3.73 h
inhibition of OAT1-mediated transport of probe substrates [28]: did not inhibit
CLtot [29]: 44.4 mL/min/kg
t½ [29]: 0.8 h
